In patent publication US20230277630A1, “METHODS AND COMPOSITIONS FOR TREATING AMYOTROPHIC LATERAL SCLEROSIS” (Amylyx Pharmaceuticals, Inc., priority 2022, published 2023):
Where “and” joins values, the source holds several entries; their conditions need not be identical. Equal entries are not always repeated. Where two headings read alike, the source gives them in different places.

Columns and labels:
BCRP = target: T1, BCRP (Homo sapiens, UniProt Q9UNQ0); assay: BCRP IC50 assessment, bidirectional cladribine transport in C2BBe1 cells
T1 sequence (Q9UNQ0 1-655): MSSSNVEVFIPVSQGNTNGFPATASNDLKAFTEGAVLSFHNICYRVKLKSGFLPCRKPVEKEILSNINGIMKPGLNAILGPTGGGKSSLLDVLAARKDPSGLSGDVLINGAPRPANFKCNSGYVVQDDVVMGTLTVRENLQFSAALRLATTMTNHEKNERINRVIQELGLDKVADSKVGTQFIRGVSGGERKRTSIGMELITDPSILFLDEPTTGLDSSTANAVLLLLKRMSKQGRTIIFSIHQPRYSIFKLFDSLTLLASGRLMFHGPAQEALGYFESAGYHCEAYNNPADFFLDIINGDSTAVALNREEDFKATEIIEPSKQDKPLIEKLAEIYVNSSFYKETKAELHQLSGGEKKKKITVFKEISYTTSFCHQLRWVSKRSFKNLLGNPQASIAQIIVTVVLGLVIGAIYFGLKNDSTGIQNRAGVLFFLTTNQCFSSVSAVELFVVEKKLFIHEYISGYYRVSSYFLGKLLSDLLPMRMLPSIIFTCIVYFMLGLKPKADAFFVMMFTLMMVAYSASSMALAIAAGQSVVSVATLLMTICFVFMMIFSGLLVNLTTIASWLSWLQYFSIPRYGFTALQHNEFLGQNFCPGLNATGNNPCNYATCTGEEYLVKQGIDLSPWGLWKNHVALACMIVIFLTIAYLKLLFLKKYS
Procedure: After 30 minutes, the pre-incubation solution was aspirated.

in vivo = conditions: male, CD (Sprague-Dawley) IGS, rat; for Cmax: po, 840 mg/kg, Cmax plasma level
[1] = Solubility assessment in HBSSg_7.4 and HBSSg_8.5; conditions: for solubility: 37 °C, thermodynamic from solid; for Measured Concentration / Percent of the Nominal Concentration: replicates 1-3; for Measured Concentration: incubated overnight
MATE2K = MATE2K (Homo sapiens, UniProt Q86VL8)
[2] = Non-specific binding assessment, uptake transporter format (cell-free poly-D-lysine plates); format: in vitro ADME; conditions: cell-free poly-D-lysine-coated 24-well plates, without BSA pre-incubation, both matrices
Procedure: Two treatments (three wells each) were included: in the first treatment, the wells were pre-incubated for 5 minutes with HBSSg_7.4_BSA or HBSSg_8.5_BSA; in the second treatment, no pre-incubation was performed (Table 32). After the pre-incubation, the solution was aspirated, and dosing solution (500 μL) was added to each well. […] After the incubation, aliquots (200 μL) were withdrawn from each chamber, combined with an equal volume of acetonitrile containing IS, and stored at 4° C. until analysis.

OATP1B3 = target: T2, OATP1B3 (Homo sapiens, UniProt Q9NPD5)
T2 sequence (Q9NPD5 1-702): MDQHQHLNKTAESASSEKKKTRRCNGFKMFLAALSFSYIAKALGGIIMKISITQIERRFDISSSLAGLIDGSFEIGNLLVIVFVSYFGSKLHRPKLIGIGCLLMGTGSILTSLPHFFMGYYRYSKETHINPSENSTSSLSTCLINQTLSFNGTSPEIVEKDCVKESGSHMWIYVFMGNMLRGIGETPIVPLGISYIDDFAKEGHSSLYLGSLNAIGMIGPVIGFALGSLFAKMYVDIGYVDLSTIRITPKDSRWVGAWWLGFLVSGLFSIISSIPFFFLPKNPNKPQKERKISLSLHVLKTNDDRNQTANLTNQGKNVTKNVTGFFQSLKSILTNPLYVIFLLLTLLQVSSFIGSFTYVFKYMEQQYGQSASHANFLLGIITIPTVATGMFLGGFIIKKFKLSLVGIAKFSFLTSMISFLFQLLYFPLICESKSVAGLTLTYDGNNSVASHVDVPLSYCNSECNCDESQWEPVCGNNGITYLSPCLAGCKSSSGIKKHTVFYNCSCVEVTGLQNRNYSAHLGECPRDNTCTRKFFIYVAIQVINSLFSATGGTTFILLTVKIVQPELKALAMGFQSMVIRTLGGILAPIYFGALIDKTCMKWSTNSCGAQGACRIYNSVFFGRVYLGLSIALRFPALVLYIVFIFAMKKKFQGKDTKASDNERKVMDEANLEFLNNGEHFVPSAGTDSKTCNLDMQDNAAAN

hrCYP2D6 = hrCYP2D6 (Homo sapiens, UniProt P10635); conditions: recombinant enzyme, 5 μM, pH 7.4
Procedure: (§1) The reaction was initiated by the addition of NADPH, followed by incubation at 37° C.
(§2) % Remaining of TA=100×At/A0
(§3) Where, At is the peak area ratio of TA to internal standard (IS) at time t, A0 is the average peak area ratio of TA to IS at time zero.

hrCYP1A2 = target: T3, hrCYP1A2 (Homo sapiens, UniProt P05177); conditions: recombinant enzyme, 5 μM, pH 7.4
T3 sequence (P05177 1-516): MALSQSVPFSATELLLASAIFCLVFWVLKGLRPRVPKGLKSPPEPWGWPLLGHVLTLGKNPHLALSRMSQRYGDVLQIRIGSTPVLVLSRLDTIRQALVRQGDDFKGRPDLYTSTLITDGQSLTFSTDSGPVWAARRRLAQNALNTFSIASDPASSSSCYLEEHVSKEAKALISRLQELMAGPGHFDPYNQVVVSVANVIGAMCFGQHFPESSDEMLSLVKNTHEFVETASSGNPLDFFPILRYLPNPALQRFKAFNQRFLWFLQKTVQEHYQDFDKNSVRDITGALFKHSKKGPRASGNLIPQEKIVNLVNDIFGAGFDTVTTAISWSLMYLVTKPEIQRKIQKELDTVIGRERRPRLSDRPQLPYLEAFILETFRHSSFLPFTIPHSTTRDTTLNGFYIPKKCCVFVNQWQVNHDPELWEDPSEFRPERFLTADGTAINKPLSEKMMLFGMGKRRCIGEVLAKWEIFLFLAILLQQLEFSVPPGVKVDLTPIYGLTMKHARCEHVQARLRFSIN
Procedure: as §1, §2, §3

[3] = HBSSg 7.4 buffer, pH 7.4, aqueous buffer
[4] = HBSSg 8.5 buffer, pH 8.5, aqueous buffer

Chain of hrCYP2D6 (P10635 whole entry): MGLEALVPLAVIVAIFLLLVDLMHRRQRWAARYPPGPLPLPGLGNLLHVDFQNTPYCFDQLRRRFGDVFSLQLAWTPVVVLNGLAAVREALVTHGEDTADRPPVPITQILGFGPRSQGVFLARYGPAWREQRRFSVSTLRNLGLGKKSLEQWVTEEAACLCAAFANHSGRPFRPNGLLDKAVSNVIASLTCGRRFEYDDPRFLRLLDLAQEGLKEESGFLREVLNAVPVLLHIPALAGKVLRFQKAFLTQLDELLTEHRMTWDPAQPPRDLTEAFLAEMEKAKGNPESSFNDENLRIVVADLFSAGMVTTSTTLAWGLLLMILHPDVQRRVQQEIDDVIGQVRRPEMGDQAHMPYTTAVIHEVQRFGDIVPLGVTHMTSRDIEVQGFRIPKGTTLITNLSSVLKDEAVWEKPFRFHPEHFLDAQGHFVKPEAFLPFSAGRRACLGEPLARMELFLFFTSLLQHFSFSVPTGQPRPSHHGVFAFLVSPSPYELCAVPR
Chain of MATE2K (Q86VL8 1-566 isoform Q86VL8-3): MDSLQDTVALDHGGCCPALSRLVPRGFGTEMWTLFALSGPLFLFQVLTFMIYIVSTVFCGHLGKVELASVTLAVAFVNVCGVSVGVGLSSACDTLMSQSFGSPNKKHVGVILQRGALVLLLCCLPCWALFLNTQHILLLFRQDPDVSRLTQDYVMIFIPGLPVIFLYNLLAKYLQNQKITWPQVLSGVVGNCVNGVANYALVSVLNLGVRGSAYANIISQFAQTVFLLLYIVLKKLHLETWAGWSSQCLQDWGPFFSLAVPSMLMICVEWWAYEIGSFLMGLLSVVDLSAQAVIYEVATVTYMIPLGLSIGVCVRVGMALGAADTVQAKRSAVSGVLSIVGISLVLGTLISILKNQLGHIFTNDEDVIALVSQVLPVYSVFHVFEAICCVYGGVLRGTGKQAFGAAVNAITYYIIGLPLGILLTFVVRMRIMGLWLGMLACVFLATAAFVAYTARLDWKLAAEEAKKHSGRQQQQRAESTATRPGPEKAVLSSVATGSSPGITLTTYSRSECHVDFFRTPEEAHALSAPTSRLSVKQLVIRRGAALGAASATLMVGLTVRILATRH

| Compound | IC50 (BCRP) [mM] | Cmax (in vivo) [ng/mL] | solubility [1, 3] [mM] | solubility [1, 4] [mM] | IC50 (MATE2K) [mM] | recovery at 5 min [2] [%] | IC50 (OATP1B3) [mM] | % Remaining of TA (hrCYP2D6; 0 h) [%] | % Remaining of TA (hrCYP2D6; 5 min) [%] | % Remaining of TA (hrCYP2D6; 10 min) [%] | % Remaining of TA (hrCYP2D6; 20 min) [%] | % Remaining of TA (hrCYP2D6; 0.5 h) [%] | % Remaining of TA (hrCYP2D6; 1 h) [%] | % remained after 60 minutes of incubation (hrCYP2D6; 1 h) | % Remaining of TA (hrCYP1A2; 0 h) [%] | % Remaining of TA (hrCYP1A2; 5 min) [%] | % Remaining of TA (hrCYP1A2; 20 min) [%] | % Remaining of TA (hrCYP1A2; 0.5 h) [%] | % Remaining of TA (hrCYP1A2; 1 h) [%] | % remained after 60 minutes of incubation (hrCYP1A2; 1 h) | also measured |
| --- | --- | --- | --- | --- | --- | --- | --- | --- | --- | --- | --- | --- | --- | --- | --- | --- | --- | --- | --- | --- | --- |
| C[C@H](CCC(=O)NCCS(=O)(=O)O)[C@H]1CC[C@H]2[C@@H]3[C@@H](O)C[C@@H]4C[C@H](O)CC[C@]4(C)[C@H]3CC[C@]12C [TUDCA, tauroursodeoxycholic acid] | 0.222 to 0.667 | 298 | ≥ 8.01 | ≥ 0.81 | > 0.81 | > 90 | 0.0387 to 0.116 | 100 | 98.4 | 97.8 | 97.0 | 99.2 | 98.6 | greater than 90% | 100 | 98.0 | 99.9 | 103 | 90.5 | greater than 90% | Tmax (in vivo; individual Tmax): 1 to 2 h; % Remaining of TA (hrCYP1A2; 10 min): 101% |
| O=C(O)CCCc1ccccc1 [PB, sodium phenylbutyrate] | 1.79 to 5.37 | 10200 | ≥ 64.4 | ≥ 73.9 | > 73.9 | > 90 | 3.63 to 10.9 | 100 | 99.9 | 96.7 | 97.6 | 101 | 100 | greater than 90% | 100 | 98.3 | 99.9 | 101 | 95.1 | greater than 90% | Measured Concentration ([1]; HBSSg_7.4): 52000 µM and 59300 µM and 52800 µM; Percent of the Nominal Concentration ([1]; HBSSg_7.4, target 8005 (TUDCA), 64447 μM (PB)): 80.7% and 92.0%; Measured Concentration ([1]; HBSSg_8.5): 62200 µM and 53200 µM and 61100 µM; Percent of the Nominal Concentration ([1]; HBSSg_8.5, target 810 μM (TUDCA), 73927 μM (PB)): 84.1% and 72.0% and 82.6% |
